Reference: patent publication US8053574B2, “Organic compounds” (Novartis AG, priority 2007, dated 2011)

Target: PI3K γ (Homo sapiens, UniProt P48736)
Experiment: PI3 kinase phosphorylation assay (Biological Method 1), Ki γ
Assay type: biochemical
Method: The compounds of the invention were synthesized according to the examples provided above. PI3K inhibitory (IC50) values of the compounds were determined according to Biological Method 1.
Assay 1: Homogenous Solution Phase Assay
Compounds to be tested are dissolved in DMSO and directly distributed into 384-well flashplates at 1.25 μL per well. To start the reaction, 20 μL of 6 nM PI3 kinase are added into each well followed by 20 μL of 400 nM ATP containing a trace of radiolabeled ATP and 900 nM 1-alpha-phosphatidylinositol (PI). The plates are briefly centrifuged to remove any air gap. The reaction is performed for 15 minutes and then stopped by the addition of 20 μL of 100 mM EDTA. The stopped reaction is incubated overnight at RT to allow the lipid substrate to bind by hydrophobic interaction to the surface of the flashplate. The liquid in the wells is then washed away, and the labeled substrate is detected with scintillation counting.
Assay 2: One Step Solid Phase Assay
This method is similar to Assay 1 except that the lipid substrate (1-alpha-phosphatidylinositol (PI)) is first dissolved in a coating buffer and incubated on flashplate at room temperature overnight to allow the lipid substrate to bind by hydrophobic interaction to the surface of the flashplate. Unbound substrate is then washed away. On the day of assay, 20 μL of 6 nM PI3 kinase are added into each well followed by 20 μL of 400 nM ATP containing trace of radiolabeled ATP. Compounds are added together with enzyme and ATP to the lipid-coated plates. The plates are briefly centrifuged to remove any air gap. The reaction is performed for two to three hours. The reaction is stopped by addition of 20 μL of 100 mM EDTA or by immediate plate washing. Phosphorylated lipid substrate is detected by scintillation counting.
Assay 3: ATP Depletion Assay
Compounds to be tested are dissolved in DMSO and directly distributed into a black 384-well plate at 1.25 μL per well. To start the reaction, 25 μL of 10 nM PI3 kinase and 5 μg/mL 1-alpha-phosphatidylinositol (PI) are added into each well followed by 25 μL of 2 μM ATP. The reaction is performed until approx 50% of the ATP is depleted, and then stopped by the addition of 25 μL of KinaseGlo solution. The stopped reaction is incubated for 5 minutes and the remaining ATP is then detected via luminescence.

[1] = Table 1, compounds of formula X
[2] = Table 2, compounds of formula X

Chain of PI3K γ (P48736 whole entry): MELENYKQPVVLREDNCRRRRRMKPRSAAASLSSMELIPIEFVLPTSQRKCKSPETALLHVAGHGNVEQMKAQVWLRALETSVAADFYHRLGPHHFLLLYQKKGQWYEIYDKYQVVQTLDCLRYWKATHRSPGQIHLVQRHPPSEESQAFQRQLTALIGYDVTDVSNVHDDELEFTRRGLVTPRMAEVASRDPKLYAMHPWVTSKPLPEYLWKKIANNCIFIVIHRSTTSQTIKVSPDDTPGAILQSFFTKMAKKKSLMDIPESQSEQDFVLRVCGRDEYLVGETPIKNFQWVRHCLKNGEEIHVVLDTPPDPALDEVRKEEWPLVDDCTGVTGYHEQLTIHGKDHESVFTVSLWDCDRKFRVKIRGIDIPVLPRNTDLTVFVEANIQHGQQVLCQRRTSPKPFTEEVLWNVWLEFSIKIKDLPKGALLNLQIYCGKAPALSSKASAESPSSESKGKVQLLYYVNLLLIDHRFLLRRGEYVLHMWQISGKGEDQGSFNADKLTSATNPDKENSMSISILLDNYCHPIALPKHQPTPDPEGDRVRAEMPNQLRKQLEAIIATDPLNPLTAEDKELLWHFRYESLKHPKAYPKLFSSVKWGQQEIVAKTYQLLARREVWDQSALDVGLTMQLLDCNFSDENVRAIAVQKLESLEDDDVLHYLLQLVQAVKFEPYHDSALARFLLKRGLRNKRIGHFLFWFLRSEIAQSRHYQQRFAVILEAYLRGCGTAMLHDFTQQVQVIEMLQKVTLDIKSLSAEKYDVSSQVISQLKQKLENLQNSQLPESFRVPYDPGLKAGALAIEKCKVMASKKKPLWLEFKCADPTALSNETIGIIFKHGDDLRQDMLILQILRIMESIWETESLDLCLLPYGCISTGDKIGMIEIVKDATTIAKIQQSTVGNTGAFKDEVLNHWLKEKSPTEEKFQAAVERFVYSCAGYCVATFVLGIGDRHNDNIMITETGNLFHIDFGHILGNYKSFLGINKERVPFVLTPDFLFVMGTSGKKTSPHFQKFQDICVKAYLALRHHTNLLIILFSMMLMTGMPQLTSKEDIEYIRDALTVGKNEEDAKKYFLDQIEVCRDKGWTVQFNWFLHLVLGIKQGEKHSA

Ki [1] [µM]	Ki [2] [µM]	Compound
0.204		CCn1nnc(CCNC(=O)Nc2cn3cc(-c4cc(Cl)cc(OC)c4)ccc3n2)n1
0.735		CCn1nnc(CCNC(=O)Nc2cn3cc(-c4cnn(Cc5ccccc5)c4)ccc3n2)n1
0.014		CC(C)n1nnc(CCNC(=O)Nc2cn3cc(-c4cncc(S(C)(=O)=O)c4)ccc3n2)n1
	0.57	1-[2-(2-Isopropyl-2H-tetrazol-5-yl)-ethyl]-3-(6-quinolin-3-yl-imidazo[1,2-a]pyridin-2-yl)-urea [Example 1-49]
	0.135	CC(C)n1nnc(CCNC(=O)Nc2cn3cc(-c4ccncc4)ccc3n2)n1 [Example 1-2, 1-[2-(2-Isopropyl-2H-tetrazol-5-yl)-ethyl]-3-(6-pyridin-4-yl-imidazo[1,2-a]pyridin-2-yl)-urea]
	0.04	CC(C)n1nnc(CCNC(=O)Nc2cn3cc(-c4cncc(C#N)c4)ccc3n2)n1 [Example 1-3, 1-[6-(5-Cyano-pyridin-3-yl)-imidazo[1,2-a]pyridin-2-yl]-3-[2-(2-isopropyl-2H-tetrazol-5-yl)-ethyl]-urea]
	0.165	CC(C)n1nnc(CCNC(=O)Nc2cn3cc(-c4cncnc4)ccc3n2)n1 [Example 1-4, 1-[2-(2-Isopropyl-2H-tetrazol-5-yl)-ethyl]-3-(6-pyrimidin-5-yl-imidazo[1,2-a]pyridin-2-yl)-urea]
	0.048	CCOc1cncc(-c2ccc3nc(NC(=O)NCCc4nnn(C(C)C)n4)cn3c2)c1 [Example 1-6, 1-[6-(5-Ethoxy-pyridin-3-yl)-imidazo[1,2-a]pyridin-2-yl]-3-[2-(2-isopropyl-2H-tetrazol-5-yl)-ethyl]-urea]
	0.018	CC(C)n1nnc(CCNC(=O)Nc2cn3cc(-c4cncc(C(F)(F)F)c4)ccc3n2)n1 [Example 1-7, 1-[2-(2-Isopropyl-2H-tetrazol-5-yl)-ethyl]-3-[6-(5-trifluoromethyl-pyridin-3-yl)-imidazo[1,2-a]pyridin-2-yl]-urea]
	0.303	CCn1nnc(CCNC(=O)Nc2cn3cc(-c4ccc5c(c4)OCO5)ccc3n2)n1 [Example 1-8, 1-(6-Benzo[1,3]dioxol-5-yl-imidazo[1,2-a]pyridin-2-yl)-3-[2-(2-ethyl-2H-tetrazol-5-yl)-ethyl]urea]
	0.24	CCn1nnc(CCNC(=O)Nc2cn3cc(-c4cccc(C(F)(F)F)c4)ccc3n2)n1 [Example 1-9, 1-[2-(2-Ethyl-2H-tetrazol-5-yl)-ethyl]-3-[6-(3-trifluoromethyl-phenyl)-imidazo[1,2-a]pyridin-2-yl]-urea]
	0.05	CC(C)n1nnc(CCNC(=O)Nc2cn3cc(-c4cncc(Cl)c4)ccc3n2)n1 [Example 1-12, 1-[6-(5-Chloro-pyridin-3-yl)-imidazo[1,2-a]pyridin-2-yl]-3-[2-(2-isopropyl-2H-tetrazol-5-yl)-ethyl]urea]
	0.147	CC(C)n1nnc(CCNC(=O)Nc2cn3cc(-c4cncc(OC5CCOCC5)c4)ccc3n2)n1 [Example 1-13, 1-[2-(2-Isopropyl-2H-tetrazol-5-yl)-ethyl]-3-{6-[5-(tetrahydro-pyran-4-yloxy)-pyridin-3-yl}-imidazo[1,2-a]pyridin-2-yl]-urea]
	0.204	CCn1nnc(CCNC(=O)Nc2cn3cc(-c4cc(Cl)ccc4OC)ccc3n2)n1 [Example 1-14, 1-[6-(5-Chloro-2-methoxy-phenyl)-imidazo[1,2-a]pyridin-2-yl]-3-[2-(2-ethyl-2H-tetrazol-5-yl)-ethyl]urea]
	0.207	CC(C)(C)NC(=O)CCNC(=O)Nc1cn2cc(-c3cncc(-c4ccccc4)c3)ccc2n1 [Example 1-15, N-tert-Butyl-3-{3-[6-(5-phenyl-pyridin-3-yl)-imidazo[1,2-a]pyridin-2-yl]ureido}-propionamide]
	0.24	CC(C)n1nnc(CCNC(=O)Nc2cn3cc(-c4cncc(-c5ccccc5)c4)ccc3n2)n1 [Example 1-16, 1-[2-(2-Isopropyl-2H-tetrazol-5-yl)-ethyl]-3-[6-(5-phenyl-pyridin-3-yl)-imidazo[1,2-a]pyridin-2-yl]urea]
	0.268	COCCOCCOc1cncc(-c2ccc3nc(NC(=O)NCCc4nnn(C(C)C)n4)cn3c2)c1 [Example 1-17, 1-[2-(2-Isopropyl-2H-tetrazol-5-yl)-ethyl]-3-(6-{5-[2-(2-methoxy-ethoxy)-ethoxy]-pyridin-3-yl}-imidazo[1,2-a]pyridin-2-yl)-urea]
	0.397	CC(C)(C)NC(=O)CCNC(=O)Nc1cn2cc(-c3cncc(OC4CCOCC4)c3)ccc2n1 [Example 1-18, N-tert-Butyl-3-(3-{6-[5-(tetrahydro-pyran-4-yloxy)-pyridin-3-yl]-imidazo[1,2-a]pyridin-2-yl}-ureido)-propionamide]
	0.301	COc1ccc(-c2ccc3nc(NC(=O)NCCc4nnn(C(C)C)n4)cn3c2)cn1 [Example 1-19, 1-[2-(2-Isopropyl-2H-tetrazol-5-yl)-ethyl]-3-[6-(6-methoxy-pyridin-3-yl)-imidazo[1,2-a]pyridin-2-yl]-urea]
	0.075	COc1ccc(-c2ccc3nc(NC(=O)NCCc4nnn(CCF)n4)cn3c2)cn1 [Example 1-20, 1-[2-[2-(2-Fluoro-ethyl)-2H-tetrazol-5-yl]-ethyl]-3-[6-(6-methoxy-pyridin-3-yl)-imidazo[1,2-a]pyridin-2-yl]-urea]
	0.014	CCn1nnc(CNC(=O)Nc2cn3cc(-c4cncc(C(F)(F)F)c4)ccc3n2)n1 [Example 1-21, 1-(2-Ethyl-2H-tetrazol-5-ylmethyl)-3-[6-(5-trifluoromethyl-pyridin-3-yl)-imidazo[1,2-a]pyridin-2-yl]urea]
	0.025	CCc1cncc(-c2ccc3nc(NC(=O)NCCc4nnn(C(C)C)n4)cn3c2)c1 [Example 1-22, 1-[6-(5-Ethyl-pyridin-3-yl)-imidazo[1,2-a]pyridin-2-yl]-3-[2-(2-isopropyl-2H-tetrazol-5-yl)-ethyl]-urea]
	0.028	CCn1cnc(CCNC(=O)Nc2cn3cc(-c4cncc(C(F)(F)F)c4)ccc3n2)c1 [Example 1-23, 1-[2-(1-Ethyl-1H-imidazol-4-yl)-ethyl]-3-[6-(5-trifluoromethyl-pyridin-3-yl)-imidazo[1,2-a]pyridin-2-yl]-urea]
	0.113	Cc1ccc(-c2ccc3nc(NC(=O)NCCc4nnn(C(C)C)n4)cn3c2)cn1 [Example 1-24, 1-[2-(2-Isopropyl-2H-tetrazol-5-yl)-ethyl]-3-[6-(6-methyl-pyridin-3-yl)-imidazo[1,2-a]pyridin-2-yl]urea]
	0.026	CCc1nnn(CCNC(=O)Nc2cn3cc(-c4cncc(C(F)(F)F)c4)ccc3n2)n1 [Example 1-25, 1-[2-(5-Ethyl-tetrazol-2-yl)-ethyl]-3-[6-(5-trifluoromethyl-pyridin-3-yl)-imidazo[1,2-a]pyridin-2-yl]urea]
	0.115	CCc1nnn(CCNC(=O)Nc2cn3cc(-c4cncc(C#N)c4)ccc3n2)n1 [Example 1-26, 1-[6-(5-Cyano-pyridin-3-yl)-imidazo[1,2-a]pyridin-2-yl]-3-[2-(5-ethyl-tetrazol-2-yl)-ethyl]-urea]
	0.028	O=C(NCCn1nnc(C2CC2)n1)Nc1cn2cc(-c3cncc(C(F)(F)F)c3)ccc2n1 [Example 1-27, 1-[2-(5-Cyclopropyl-tetrazol-2-yl)-ethyl]-3-[6-(5-trifluoromethyl-pyridin-3-yl)-imidazo[1,2-a]pyridin-2-yl]-urea]
	0.836	CC(C)n1nnc(CCNC(=O)Nc2cn3cc(-c4cccc(F)c4)ccc3n2)n1 [Example 1-28, 1-[6-(3-Fluoro-phenyl)-imidazo[1,2-a]pyridin-2-yl]-3-[2-(2-isopropyl-2H-tetrazol-5-yl)-ethyl]urea]
